How the values were obtained:
[1] = parallel artificial membrane permeability assay (PAMPA); format: in vitro ADME
[2] = MTT cell viability test on human astrocytes; format: cell-based; details: human; 24 h; at 0.15 and 0.25 mg/mL; read-out: decline in cell viability in comparison to the control level
Method: The studies were performed on a commercially-available astrocyte cell line isolated from human cerebral cortex (ScienCell Research Laboratories, San Diego, CA, USA; Cat no. 1800). The cells (passage 7–8) were seeded into a 96-well plate at an amount of 10,000 cells/well and kept in accordance with the ScienCell Research Laboratories’ protocol, i.e., in astrocyte medium supplemented with 2% fetal bovine serum, 10% astrocyte growth supplement and 1% penicillin/streptomycin solution, in an atmosphere with 5% CO2 at 37 °C. The cells were allowed to grow for 24 h and then treated with increasing concentrations of test compounds (0.01–0.25 mg/mL) for 24 and 72 h. Astrocytes in the medium on each plate (regardless of the factors tested) were used as a positive control.
The viability of the astrocyte cell line was determined calorimetrically using 3-(4,5-dimethylthazol-2-yl)-2,5-diphenyltetrazolium bromide (MTT; Sigma-Aldrich Chemical Co. Ltd., Saint Louis, MO, USA) as described earlier. […] After the incubation time (24 or 72 h) with examined drugs, 50 μL MTT solution (1 mg/mL) was added to each well of the plate for another 4 h. The method is based on the reduction of a yellow tetrazolium salt (MTT) into purple formazan crystals by mitochondrial succinate-tetrazolium reductase system which is metabolically active in viable cells. At the end of the experiment, the cells were treated with 100 μL dimethyl sulphoxide, which enabled the release of the reaction product.
The absorbance was measured at 570 nm using a BioTek EL×800 microplate reader (BioTek, Winooski, Vermont, USA) and results were expressed as a percentage of the absorbance measured in control cells. The obtained values were plotted against different concentrations of each compound to calculate the viability inhibition concentration at 50% (IC50) using GraphPad Prism 6.07 (GraphPad Software, Inc., San Diego, CA, USA). The experiment was repeated in quadruplicate.
For the cytotoxicity assessment in the MTT assays, each test drug was used at 8 concentrations (range: 0.01–0.25 mg/mL).

[3] = target: human histamine H3 receptor (hH3R) (Homo sapiens, UniProt Q9Y5N1); experiment: [3H]Nα-methylhistamine radioligand binding assay in CHO-K1 cells stably expressing hH3R; set-up: expressed in transfected cells; host or cells: CHO-K1; details: CHO-K1 cells; [3H]Nα-methylhistamine; mean ± SEM of three independent experiments; read-out: hH3R Ki [nM] ± SEM
human histamine H3 receptor (hH3R), sequence (Q9Y5N1 whole entry): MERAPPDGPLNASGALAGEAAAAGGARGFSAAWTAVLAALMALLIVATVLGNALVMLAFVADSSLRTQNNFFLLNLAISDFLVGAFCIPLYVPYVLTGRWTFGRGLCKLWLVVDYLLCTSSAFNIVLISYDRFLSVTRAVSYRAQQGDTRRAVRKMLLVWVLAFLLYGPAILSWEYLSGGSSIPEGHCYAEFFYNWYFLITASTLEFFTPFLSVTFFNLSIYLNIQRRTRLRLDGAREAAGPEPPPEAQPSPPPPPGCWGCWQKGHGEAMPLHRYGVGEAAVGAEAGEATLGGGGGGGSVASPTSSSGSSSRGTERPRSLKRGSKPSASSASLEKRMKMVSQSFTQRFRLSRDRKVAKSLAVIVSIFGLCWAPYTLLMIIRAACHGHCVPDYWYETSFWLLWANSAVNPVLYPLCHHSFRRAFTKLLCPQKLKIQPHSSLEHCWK
Method: Affinity to hH3R stably expressed in CHO-K1 [6] or HEK293 [11] cells was evaluated in a radioligand binding assay as described previously. Briefly, 10 mM stock solutions of the test compounds in DMSO were prepared. Each compound was tested at eight concentrations ranging from 10^−5 to 10^−12 M (final concentration). All assays were carried out in duplicate. […] The radioactivity was counted in MicroBeta 2 [6] or MicroBeta Trilux counter (PerkinElmer). Data were fitted to a one-site curve-fitting equation with Prism 6 (GraphPad Software, San Diego, CA, USA) and Ki values were calculated from IC50 values (from at least three experiments performed in duplicates) according to the Cheng−Prusoff equation [12].
Affinity for hH3R was evaluated in a radioligand binding assay using [^3H]N^α-methylhistamine as radioligand in CHO K1 or HEK293 cells stably expressing hH3R as described previously. […] Then, those with at least 50% inhibition for hH3R were selected for further testing (Ki evaluation). […] Compounds were tested in the binding assay in HEK293 cells.

CC1CCCN1CCCOc1ccc(C(C)(C)C)cc1.O=C(O)C(=O)O (centres unmarked) [Compound 13, 1-(3-(4-(tert-Butyl)phenoxy)propyl)-2-methylpyrrolidine hydrogen oxalate]
permeability in PAMPA, in words [1]: high permeability
Pe (×10^−6cm/s) ± SD ([1]; PAMPA, triplicate, breakpoint for permeable compounds Pe ≥ 1.5×10^−6 cm/s): 16.72 ×10^−6cm/s
Papp ([1]; PAMPA, triplicate, breakpoint for permeable compounds Pe ≥ 1.5×10^−6 cm/s, read-out: Pe ± SD): 16.72 ± 0.06 ×10⁻⁶ cm/s
viability at 24 h [2]: > 95%
Ki [3]: 25 ± 9 nM

— article PMC9607599, “Dual Targeting Ligands—Histamine H3 Receptor Ligands with Monoamine Oxidase B Inhibitory Activity—In Vitro and In Vivo Evaluation” (Pharmaceutics, 2022)
